The target of experiment [1] is T1, Signal transducer and activator of transcription 1-alpha/beta (Homo sapiens, UniProt P42224).
T1 sequence (P42224 whole entry): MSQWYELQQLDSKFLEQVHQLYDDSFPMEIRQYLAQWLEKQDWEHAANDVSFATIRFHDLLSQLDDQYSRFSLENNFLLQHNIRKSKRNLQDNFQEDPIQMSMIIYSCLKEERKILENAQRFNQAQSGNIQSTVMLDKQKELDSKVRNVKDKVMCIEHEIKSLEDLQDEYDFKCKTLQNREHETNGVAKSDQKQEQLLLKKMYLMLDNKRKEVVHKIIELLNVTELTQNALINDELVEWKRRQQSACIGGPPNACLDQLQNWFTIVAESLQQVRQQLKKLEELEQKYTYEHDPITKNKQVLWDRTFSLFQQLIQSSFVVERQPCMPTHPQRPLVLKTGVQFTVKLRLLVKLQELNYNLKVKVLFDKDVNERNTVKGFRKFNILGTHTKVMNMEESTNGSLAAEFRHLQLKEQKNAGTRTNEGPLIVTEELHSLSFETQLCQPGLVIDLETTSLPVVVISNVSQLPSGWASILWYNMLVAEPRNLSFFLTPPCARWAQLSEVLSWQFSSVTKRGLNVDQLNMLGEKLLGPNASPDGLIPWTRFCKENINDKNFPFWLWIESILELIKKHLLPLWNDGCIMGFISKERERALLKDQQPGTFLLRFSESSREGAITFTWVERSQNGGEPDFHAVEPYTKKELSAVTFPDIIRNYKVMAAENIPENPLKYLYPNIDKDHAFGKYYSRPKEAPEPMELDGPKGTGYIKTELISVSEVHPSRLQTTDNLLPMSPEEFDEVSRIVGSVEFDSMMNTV
As to the kind of experiment: (§1) Inhibition of STAT1 dimer DNA binding activity after 30 mins. The experiment is classed as functional.

The target of experiment [2] is Signal transducer and activator of transcription 3 (Homo sapiens, UniProt P40763). Kind of experiment: Inhibition of STAT3 dimer DNA binding activity after 30 mins.
Chain of Signal transducer and activator of transcription 3 (P40763 whole entry): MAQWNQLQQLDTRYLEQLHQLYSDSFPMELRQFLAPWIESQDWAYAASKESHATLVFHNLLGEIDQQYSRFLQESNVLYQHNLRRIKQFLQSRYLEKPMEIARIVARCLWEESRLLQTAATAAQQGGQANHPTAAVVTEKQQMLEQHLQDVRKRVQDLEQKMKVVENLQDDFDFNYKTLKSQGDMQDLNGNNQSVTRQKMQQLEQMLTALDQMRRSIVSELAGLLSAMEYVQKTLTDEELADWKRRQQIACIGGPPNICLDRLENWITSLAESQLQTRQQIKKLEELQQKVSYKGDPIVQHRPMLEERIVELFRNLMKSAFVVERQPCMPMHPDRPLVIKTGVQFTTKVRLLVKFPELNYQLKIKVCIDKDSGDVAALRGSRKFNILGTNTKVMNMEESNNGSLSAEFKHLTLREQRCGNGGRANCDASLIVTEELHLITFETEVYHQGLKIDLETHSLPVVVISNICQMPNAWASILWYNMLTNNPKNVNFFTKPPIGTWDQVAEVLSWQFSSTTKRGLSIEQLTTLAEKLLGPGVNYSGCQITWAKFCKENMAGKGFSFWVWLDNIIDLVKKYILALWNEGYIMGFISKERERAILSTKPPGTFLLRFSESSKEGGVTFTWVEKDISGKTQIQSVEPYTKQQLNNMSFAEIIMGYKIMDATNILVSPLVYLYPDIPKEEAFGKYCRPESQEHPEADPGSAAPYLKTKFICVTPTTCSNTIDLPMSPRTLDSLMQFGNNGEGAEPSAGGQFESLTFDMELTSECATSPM
Experiment [3] concerns the target T2, Signal transducer and activator of transcription 1-alpha/beta (Homo sapiens) (UniProt P42224).
T2 sequence (whole entry): T1 sequence (P42224 whole entry)
The description is as §1. The experiment is classed as functional.

Activity calls are given as the source filed them. No cut-off for these calls is given here.

For the compound `CC(C)C[C@H](NC(=O)[C@H](Cc1ccc(OP(=O)(O)O)cc1)NC(=O)c1ccc(C#N)cc1)C(=O)NCCCO`, the values for the IC50 in experiment [1] and in experiment [2] were 210 µM and 620 µM, respectively.

With `COc1cccc(NC(=O)[C@H](CC(C)C)NC(=O)[C@H](Cc2ccc(OP(=O)(O)O)cc2)NC(=O)c2ccc(C#N)cc2)c1`, the IC50 (in general, the midpoint of a concentration-inhibition curve) stood at 560 µM in experiment [1] and 31 µM in experiment [2].

Regarding `CC(C)C[C@H](NC(=O)[C@H](Cc1ccc(OP(=O)(O)O)cc1)NC(=O)c1ccc(C#N)cc1)C(=O)NCc1ccccc1`, the half-maximal inhibitory concentration (IC50) in experiment [1] is 760 µM; in experiment [2] it was 800 µM.

`CC(C)C[C@H](NC(=O)[C@H](Cc1ccc(OP(=O)(O)O)cc1)NC(=O)c1ccc(C#N)cc1)C(=O)NC1CCCCC1`: the IC50 in experiment [1] is 605 µM; in experiment [2], 58 µM.

As to `CC(C)CNC(=O)[C@H](CC(C)C)NC(=O)[C@H](Cc1ccc(OP(=O)(O)O)cc1)NC(=O)c1ccc(C#N)cc1` (stereo in doubt; form 2), the IC50 was 250 µM in experiment [1] and 74 µM in experiment [2].

Regarding `CC(C)C[C@H](NC(=O)[C@H](Cc1ccc(OP(=O)(O)O)cc1)NC(=O)c1ccc(C#N)cc1)C(=O)Nc1ccccc1`, the IC50 in experiment [1] amounted to 380 µM; in experiment [2] it was 310 µM.

Consider `COC(=O)[C@H](CC(C)C)NC(=O)[C@H](Cc1ccc(OP(=O)(O)O)cc1)NC(=O)c1ccc(C#N)cc1`, for which the result in experiment [3] and in experiment [2] was inactive.

As for `CC(C)C[C@H](NC(=O)[C@H](Cc1ccc(OP(=O)(O)O)cc1)NC(=O)c1ccc(C#N)cc1)C(=O)NCc1ccncc1`, the IC50 in experiment [1] is 402 µM; in experiment [2], 123 µM.

For the compound `CC(C)C[C@H](NC(=O)[C@H](Cc1ccc(OP(=O)(O)O)cc1)NC(=O)c1ccc(C#N)cc1)C(=O)NCc1cccnc1`, the outcome in experiment [3] and in experiment [2] was inactive.

For `CC(C)CNC(=O)[C@H](CC(C)C)NC(=O)[C@H](Cc1ccc(OP(=O)(O)O)cc1)NC(=O)c1ccc(C#N)cc1` (stereo in doubt; form 1), the half-inhibitory concentration (IC50) in experiment [1] was 760 µM; in experiment [2], 58 µM.

Regarding `Cc1cccc(NC(=O)[C@H](CC(C)C)NC(=O)[C@H](Cc2ccc(OP(=O)(O)O)cc2)NC(=O)c2ccc(C#N)cc2)c1`, the outcome in experiment [3] and in experiment [2] was inactive.

(Values after ChEMBL document CHEMBL1148868, “Isoform selective inhibition of STAT1 or STAT3 homo-dimerization via peptidomimetic probes: structural recognition of STAT SH2 domains” (Bioorg Med Chem Lett, 2007).)
